Experimental data published in patent US20130108573A1, “Bile Acid Recycling Inhibitors for Treatment of Hypercholemia and Cholestatic Liver Disease” (Lumena Pharmaceuticals, Inc., priority 2011, published 2013).
Marks after values point to notes of the source that are not given here.

Columns and labels:
[1] = system: Dog Serum Bile Acids; assay: Time to onset of activity of LUM001 on postprandial serum bile acids in beagle dogs; type: in vivo; conditions: for Serum Bile Acid, Mean: dogs n = 6, fed at 0 min, dosed at 60 min
Procedure: LUM001 was dissolved in water at concentrations that required the administration of 0.2 ml/kg of solution. Solutions were placed into gelatin capsules, Torpac Inc., size 13 Batch 594, East Hanover N.J., and administered orally.
Male beagle dogs were obtained from Covance Research Products, Cumberland Va. or Marshall Farms USA, Inc., North Rose N.Y. A total of 20 dogs, 1 to 5 years old, 6.8 to 15.6 kg body weight, were used in these experiments. The dogs were conditioned to a 12 hour light/dark cycle and maintained on a feeding restriction of 1 hour per day access to food (Richman Standard Certified Canine Diet #5007, PMI Nutrition, Inc., St Louis Mo.) from 7 to 8 AM. They were trained to eat a special meal promptly within 20 minutes when presented (1 can. 397 g, Evanger's 100% Beef for Dogs, Evanger's Dog and Cat Food Co., Inc., Wheeling Ill., mixed with 50 g of sharp cheddar cheese.).
SBA was measured by an enzymatic assay. SBA values are expressed as μg of total bile acids/ml of serum.
To estimate the details of this plateau, 6 dogs were given a test meal and blood samples for SBA measurement were collected at −30, 0, 30, 60, 65, 70, 80, 90, 120, 180, 240, 360, 480, 720, 1410 and 1440 minutes from the time of feeding. Any remaining food was removed 20 min after it was first presented to the dogs. To establish a method for extending the elevated plateau of SBA, 6 dogs were given the meal at 0 hr and an additional ½ size meal again 4 hr after their first meal. Blood samples were taken at 0, 1, 2, 3, 4, 4.5, 6, 7 and 8 hr. The curves for SBA level vs time obtained in these experiments were used as references for determining blood sampling times in experiments with LUM001. Wherever possible, experimental design permitting, in experiments with test compound, each dog served as its own simultaneous control, and the mean 1 hr SBA value served as the reference to which all other mean values were compared.
LUM001 was administered at 0, 0.01, 0.05, 0.2 and 1 mg/kg, p.o. to dogs, n=6, 1 hr after feeding the standard experimental meal. Blood samples for SBA measurement were taken at −30, 0, 30, 60, 65, 70, 80, 90, 120 and 180 minutes from the time of feeding. Each dog served as its own control, and mean SBA levels were compared to the mean SBA level at 60 minutes.

[2] = Pharmacokinetics of LUM001 in subjects under 18 years (study NB-00-02-014): systemic exposure; type: in vivo, human; conditions: for Average serum drug exposure: day eight
Procedure: LUM001 has been administered to forty patients under the age of 18 years old. […] The drug was administered once-a-day (QD) in the morning for fourteen days. […] These doses are similar to those using to treat patients with cholestatic diseases.

[3] = Pediatric multiple-dose study of LUM-001: tolerability; type: in vivo, human; conditions: 2 weeks daily up to 5 mg q.d., 39 treated subjects aged 10-17
Source text: (39 treated subjects aged 10-17).

[4] = system: Serum Bile Acid and Fecal Bile Acid; assay: Phase 1 ascending multiple oral dose study of LUM001 in healthy adult subjects: serum and fecal bile acid analysis; type: in vivo, human; conditions: ascending multiple oral doses, 28 days, vs placebo
Procedure: This Phase 1 study was a randomized, double-blind, placebo-controlled study of ascending multiple oral doses of LUM001 in healthy, adult subjects. This study was conducted at a single center. There were 13 LUM001 dosing panels: 10, 20, 60, 100, and 20 mg every morning (qAM) (2) (i.e., the regimen was tested a second time in the study), 5 mg every evening (qPM), 0.5, 1, 2.5, 5, 2.5 (2), 5 (2), and 0.5 to 5 mg qAM dose titration. Most of the dosing panels included subjects treated with matching placebo. Shown in the graphs are data from the 0.5 (n=16), 1.0 (n=8), 2.5 (n=8), 5.0 (n=8) and 10 (n=8) mg dosing groups. […]
SBA were analyzed as part of the routine clinical analysis of the serum samples collected at each time point.
Fecal samples were collected for all panels except the dose-titration panel, 2.5 (2) and 5 mg (2), on Days 9 through 14 and 23 through 28 (data shown in FIG. 4). Twenty-four hour FBA excretions were quantified by Pharmacia for Days 9 through 14 and 23 through 28. […] The weight of each 24-hour fecal collection was recorded on the CRFs. […]
An aliquot for each 24-hour fecal sample collected on Days 23 through 28 was combined, homogenized, and analyzed for bile acid species concentrations by ANAPHARM. The fecal bile acid species evaluated include chenodeoxycholic acid, cholic acid, deoxycholic acid, and lithocholic acid.

[5] = dogs, 1 mg/kg orally 1 hour after feeding

Systemic exposure (absorption) of LUM001 ([2]; patients under the age of 18, once-a-day in the morning for fourteen days, measured on day eight): minimally absorbed
Average serum drug exposure ([2]; subject 0304, LUM001 1.0 mg QD (24.3 μg/kg)): 0.0 ng/mL
Average serum drug exposure ([2]; subject 0309, LUM001 1.0 mg QD (35.0 μg/kg)): 0.0 ng/mL
Structure (SMILES): CCCCC1(CCCC)CS(=O)(=O)c2ccc(N(C)C)cc2[C@@H](c2ccc(OCc3ccc(C[N+]45CCN(CC4)CC5)cc3)cc2)[C@H]1O [LUM001]
Threshold dose for significant SBA lowering ([1]; dog SBA model, oral): 0.05 mg/kg
Serum Bile Acid, Mean ([1]; 0.01 mg/kg p.o., time 0 min): 1.4 µg/mL
Serum Bile Acid, Mean ([1]; 0.01 mg/kg p.o., time 30 min): 5.8 µg/mL
Serum Bile Acid, Mean ([1]; 0.01 mg/kg p.o., time 60 min): 14.6 µg/mL
Serum Bile Acid, Mean ([1]; 0.01 mg/kg p.o., time 65 min): 13.9 µg/mL
Serum Bile Acid, Mean ([1]; 0.01 mg/kg p.o., time 70 min): 14.1 µg/mL
Serum Bile Acid, Mean ([1]; 0.01 mg/kg p.o., time 80 min): 12.8 µg/mL
Serum Bile Acid, Mean ([1]; 0.01 mg/kg p.o., time 90 min): 11.0 µg/mL
Serum Bile Acid, Mean ([1]; 0.01 mg/kg p.o., time 120 min): 10.6 µg/mL
Serum Bile Acid, Mean ([1]; 0.01 mg/kg p.o., time 180 min): 11.0 µg/mL
Serum Bile Acid, Mean ([1]; 0.01 mg/kg p.o., time −30 min): 1.5 µg/mL
Serum Bile Acid, Mean ([1]; 0.05 mg/kg p.o., time 0 min): 2.1 µg/mL
Serum Bile Acid, Mean ([1]; 0.05 mg/kg p.o., time 30 min): 6.8 µg/mL
Serum Bile Acid, Mean ([1]; 0.05 mg/kg p.o., time 60 min): 10.4 µg/mL
Serum Bile Acid, Mean ([1]; 0.05 mg/kg p.o., time 65 min): 12.2 µg/mL
Serum Bile Acid, Mean ([1]; 0.05 mg/kg p.o., time 70 min): 12.0 µg/mL
Serum Bile Acid, Mean ([1]; 0.05 mg/kg p.o., time 80 min): 10.0 µg/mL
Serum Bile Acid, Mean ([1]; 0.05 mg/kg p.o., time 90 min): 8.8 µg/mL
Serum Bile Acid, Mean ([1]; 0.05 mg/kg p.o., time 120 min): 6.5* μg/ml
Serum Bile Acid, Mean ([1]; 0.05 mg/kg p.o., time 180 min): 6.5* μg/ml
Serum Bile Acid, Mean ([1]; 0.05 mg/kg p.o., time −30 min): 1.4 µg/mL
Serum Bile Acid, Mean ([1]; 0.2 mg/kg p.o., time 0 min): 1.9 µg/mL
Serum Bile Acid, Mean ([1]; 0.2 mg/kg p.o., time 30 min): 9.1 µg/mL
Serum Bile Acid, Mean ([1]; 0.2 mg/kg p.o., time 60 min): 19.1 µg/mL
Serum Bile Acid, Mean ([1]; 0.2 mg/kg p.o., time 65 min): 14.9 µg/mL
Serum Bile Acid, Mean ([1]; 0.2 mg/kg p.o., time 70 min): 16.7 µg/mL
Serum Bile Acid, Mean ([1]; 0.2 mg/kg p.o., time 80 min): 14.3 µg/mL
Serum Bile Acid, Mean ([1]; 0.2 mg/kg p.o., time 90 min): 9.8* μg/ml
Serum Bile Acid, Mean ([1]; 0.2 mg/kg p.o., time 120 min): 4.8* μg/ml
Serum Bile Acid, Mean ([1]; 0.2 mg/kg p.o., time 180 min): 4.0 µg/mL
Serum Bile Acid, Mean ([1]; 0.2 mg/kg p.o., time −30 min): 2.4 µg/mL
Serum Bile Acid, Mean ([1]; 1 mg/kg p.o., time 0 min): 2.6 µg/mL
Serum Bile Acid, Mean ([1]; 1 mg/kg p.o., time 30 min): 7.6 µg/mL
Serum Bile Acid, Mean ([1]; 1 mg/kg p.o., time 60 min): 13.8 µg/mL
Serum Bile Acid, Mean ([1]; 1 mg/kg p.o., time 65 min): 13.5 µg/mL
Serum Bile Acid, Mean ([1]; 1 mg/kg p.o., time 70 min): 15.4 µg/mL
Serum Bile Acid, Mean ([1]; 1 mg/kg p.o., time 80 min): 12.1 µg/mL
Serum Bile Acid, Mean ([1]; 1 mg/kg p.o., time 90 min): 7.4* μg/ml
Serum Bile Acid, Mean ([1]; 1 mg/kg p.o., time 120 min): 3.0* μg/ml
Serum Bile Acid, Mean ([1]; 1 mg/kg p.o., time 180 min): 2.6* μg/ml
Serum Bile Acid, Mean ([1]; 1 mg/kg p.o., time −30 min): 2.1 µg/mL
Time after dosing to significantly lowered serum bile acid levels ([1]; dogs, 0.2 mg/kg orally 1 hour after feeding): ≤ 30 min
Effect of increasing the dose above the ED50 level on onset time to significant SBA lowering [1, 5]: did not shorten the onset time
Time after dosing for which maximal SBA suppression was sustained [1, 5]: 2 h
Tolerability [3]: well-tolerated
Fecal bile acids [4]: significant increase
Serum bile acids [4]: significant reduction
